Target: Lysine-specific histone demethylase 1A (Homo sapiens, UniProt O60341)
Assay: LSD1 Enzyme Activity Assay

SMILES	IC50 [nM]
Cc1noc2cc(-c3cc(C#N)c(N4CCC(N)CC4)nc3-c3ccc(C#N)c(F)c3)c(F)cc12 [US20240216357, Example 284]	633
COc1ccc(-c2nc(N3CCC(N)CC3)cc(C#N)c2-c2ccc(C#N)c(F)c2)cc1O [US20240216357, Example 274]	23.8
COc1ccc(Nc2c(O)cc(N3CCC(N)CC3)nc2-c2ccc(C#N)c(F)c2)cc1F [US20240216357, Example 64]	119
COc1ccc(-c2c(-c3ccc(C#N)c(F)c3)nc(N3CCC(N)CC3)c3c2OCC(=O)N3)cc1O [US20240216357, Example 280]	0.272
Cc1ccc(-c2c(-c3ccc(C#N)cc3)nc3c(N4CCC[C@@H](N)C4)nccn23)cc1 [US20240216357, Example 5]	28.5
COc1ccc(-c2c(-c3ccc(C#N)c(F)c3)nc(N3CCC(N)CC3)c3c2cnn3C)cc1O [US20240216357, Example 285]	0.93
COc1cc(N2CCC(N)CC2)nc(-c2ccc(C#N)c(F)c2)c1-c1ccc(Cl)c(O)c1 [US20240216357, Example 98]	0.7

Source: BindingDB's records for patent US20240216357 (Sichuan Huiyu Pharmaceutical, 2024)
